Data on four compounds can be found in patent publication US20070004759A1, “Fungicidal mixtures for controlling rice pathogens” (priority 2004, published 2007).

The structures appear in SMILES notation.

In this assay the test system is Cochliobolus miyabeanus. Nature of the assay: Activity against brown spot of rice caused by Cochliobolus miyabeanus, protective application. The assay is classed as in vivo. The note with it: individual active compound, rice seedlings cultivar Tai-Nong 67, protective spray, evaluated six days after inoculation. How it is done: The active compounds, separately or jointly, were prepared as a stock solution with 0.25% by weight of active compound in acetone or DMSO. 1% by weight of the emulsifier Uniperol® EL (wetting agent having emulsifying and dispersing action based on ethoxylated alkylphenols) was added to this solution, and the solution was diluted with water to the desired concentration.
Leaves of potted rice seedlings of the cultivar “Tai-Nong 67” were sprayed to runoff point with an aqueous suspension of the concentration of active compound stated below. The next day, the plants were inoculated with an aqueous spore suspension of Cochliobolus miyabeanus. The test plants were then placed in climatized chambers at 22-24° C. and 95-99% relative atmospheric humidity for six days. The extent of the development of the infection on the leaves was then determined visually.
Evaluation is carried out by determining the percentage of infected plants. These percentages were converted into efficacies.
The efficacy (E) is calculated as follows using Abbot's formula: E=(1−α/β)·100
α corresponds to the fungicidal infection of the treated plants in % and
β corresponds to the fungicidal infection of the untreated (control) plants in %
An efficacy of 0 means that the infection level of the treated plants corresponds to that of the untreated control plants; an efficacy of 100 means that the treated plants are not infected.
The expected efficacies of mixtures of active compounds are determined using Colby's formula (Colby, R. S., Weeds, 15, 20-22, 1967) and compared with the observed efficacies.
Colby's formula: E=x+y−x·y/100 • E expected efficacy, expressed in % of the untreated control, when using the mixture of the active compounds A and B at the concentrations a and b • x efficacy, expressed in % of the untreated control, when using the active compound A at the concentration a • y efficacy, expressed in % of the untreated control, when using the active compound B at the concentration b

With `CC1CCN(c2c(-c3c(F)cccc3Cl)c(Cl)nc3ncnn23)CC1` [A], the “Efficacy in % of the untreated control” value reads like this: (4 ppm in the spray liquor) 29%; (16 ppm in the spray liquor) 53%.
Regarding `C[C@H](Nc1c(-c2c(F)cc(F)cc2Cl)c(Cl)nc2ncnn12)C(F)(F)F` [B], the “Efficacy in % of the untreated control” value (4 ppm in the spray liquor) worked out at 5% and the “Efficacy in % of the untreated control” value (16 ppm in the spray liquor) is 41%.
For `CC1CCN(c2c(-c3c(F)cc(F)cc3F)c(Cl)nc3ncnn23)CC1` [compound I, 5-chloro-7-(4-methylpiperidin-1-yl)-6-(2,4,6-trifluorophenyl)-[1,2,4]triazolo[1,5-a]pyrimidine] the same measures were 5% and 17%.
For `CC1(C(=O)Nc2ccc(O)c(Cl)c2Cl)CCCCC1` [compound II, N-(2,3-dichloro-4-hydroxyphenyl)-1-methylcyclohexanecarboxamide] the same measures were 0% and 0%.
